# Assay results from patent US20060149062A1, “Sulfanyl substituted phenyl methanones” (priority 2005, published 2006).
# Target: T1, mGlyT-1b (Mus musculus, UniProt P28571)
# T1 construct: expressed in transfected cells; host or cells: Flp-in-CHO (Invitrogen Cat no R758-07), stably transfected
# T1 sequence (P28571 1-651 isoform P28571-2): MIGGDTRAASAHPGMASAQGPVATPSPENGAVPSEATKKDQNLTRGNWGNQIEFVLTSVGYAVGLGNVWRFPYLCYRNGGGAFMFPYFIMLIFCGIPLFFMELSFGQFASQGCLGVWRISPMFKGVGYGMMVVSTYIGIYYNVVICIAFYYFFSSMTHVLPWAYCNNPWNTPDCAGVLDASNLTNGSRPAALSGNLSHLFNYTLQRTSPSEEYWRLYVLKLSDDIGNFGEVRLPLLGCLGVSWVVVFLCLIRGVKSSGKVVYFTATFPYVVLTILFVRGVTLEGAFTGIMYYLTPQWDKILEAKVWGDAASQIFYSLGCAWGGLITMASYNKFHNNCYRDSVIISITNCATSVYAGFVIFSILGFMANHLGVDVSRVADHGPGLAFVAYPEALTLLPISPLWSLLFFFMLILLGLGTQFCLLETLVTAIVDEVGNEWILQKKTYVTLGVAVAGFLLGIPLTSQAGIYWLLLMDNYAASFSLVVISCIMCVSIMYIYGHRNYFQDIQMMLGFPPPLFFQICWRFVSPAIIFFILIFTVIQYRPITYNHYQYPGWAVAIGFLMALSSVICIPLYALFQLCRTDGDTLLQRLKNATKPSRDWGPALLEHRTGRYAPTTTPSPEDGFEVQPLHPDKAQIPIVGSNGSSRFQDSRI
# Assay: Glycine Uptake Inhibition Assay (mGlyT-1b)
# Assay type: cell-based
# Conditions: [3H]-glycine uptake in Flp-in-CHO cells transfected with mGlyT-1b cDNA; read-out: IC50 (μM) at GlyT-1
# Protocol: DMEM complete medium: Nutrient mixture F-12 (Gibco Life-technologies), fetal bovine serum (FBS) 5%, (Gibco life technologies), Penicillin/Streptomycin 1% (Gibco life technologies), Hygromycin 0.6 mg/ml (Gibco life technologies), Glutamine 1 mM Gibco life technologies)
# Uptake buffer (UB): 150 mM NaCl, 10 mM Hepes-Tris, pH 7.4, 1 mM CaCl2, 2.5 mM KCl, 2.5 mM MgSO4, 10 mM (+) D-glucose.
# Flp-in™-CHO (Invitrogen Cat no R758-07) cells stably transfected with mGlyT1b cDNA.
# Glycine Uptake Inhibition Assay (mGlyT-1b)
# On day 1 mammalian cells, (Flp-in™-CHO), transfected with mGlyT-1b cDNA, were plated at the density of 40,000 cells/well in complete F-12 medium, without hygromycin in 96-well culture plates. On day 2, the medium was aspirated and the cells were washed twice with uptake buffer (UB). The cells were then incubated for 20 min at 22° C. with either (i) no potential competitor, (ii) 10 mM non-radioactive glycine, (iii) a concentration of a potential inhibitor. A range of concentrations of the potential inhibitor was used to generate data for calculating the concentration of inhibitor resulting in 50% of the effect (e.g. IC50, the concentration of the competitor inhibiting glycine uptake of 50%). A solution was then immediately added containing [^3H]-glycine 60 nM (11-16 Ci/mmol) and 25 μM non-radioactive glycine. The plates were incubated with gentle shaking and the reaction was stopped by aspiration of the mixture and washing (three times) with ice-cold UB. The cells were lysed with scintillation liquid, shaken 3 hours and the radioactivity in the cells was counted using a scintillation counter.
row,Compound,IC50 [µM]
1,"CCSc1ccc(S(C)(=O)=O)cc1C(=O)N1CCN(c2ncc(C(F)(F)F)cc2F)CC1 [Example 7, (2-Ethylsulfanyl-5-methanesulfonyl-phenyl)-[4-(3-fluoro-5-trifluoromethyl-pyridin-2-yl)-piperazin-1-yl]-methanone]",0.08
2,"CC(=O)c1ccc(N2CCN(C(=O)c3cc(S(C)(=O)=O)ccc3SC(C)C)CC2)c(F)c1 [Example 22, 1-{3-Fluoro-4-[4-(2-isopropylsulfanyl-5-methanesulfonyl-benzoyl)-piperazin-1-yl]-phenyl}-ethanone]",0.015
3,"CC(C)CSc1ccc(S(C)(=O)=O)cc1C(=O)N1CCN(c2ccc(S(C)(=O)=O)cc2F)CC1 [Example 18, [4-(2-Fluoro-4-methanesulfonyl-phenyl)-piperazin-1-yl]-(2-isobutylsulfanyl-5-methanesulfonyl-phenyl)-methanone]",0.1
4,"CS(=O)(=O)c1ccc(SCC(F)(F)F)c(C(=O)N2CCN(c3ncc(C(F)(F)F)cc3F)CC2)c1 [Example 11, [4-(3-Fluoro-5-trifluoromethyl-pyridin-2-yl)-piperazin-1-yl]-[5-methanesulfonyl-2-(2,2,2-trifluoro-ethylsulfanyl)-phenyl]-methanone]",0.07
5,"CC(C)Sc1ccc(S(C)(=O)=O)cc1C(=O)N1CCN(c2ccc(S(C)(=O)=O)cc2F)CC1 [Example 6, [4-(2-Fluoro-4-methanesulfonyl-phenyl)-piperazin-1-yl]-(2-isopropylsulfanyl-5-methanesulfonyl-phenyl)-methanone]",0.04
6,"CS(=O)(=O)c1ccc(N2CCN(C(=O)c3cc(S(C)(=O)=O)ccc3SCC(F)(F)F)CC2)c(F)c1 [Example 14, [4-(2-Fluoro-4-methanesulfonyl-phenyl)-piperazin-1-yl]-[5-methanesulfonyl-2-(2,2,2-trifluoro-ethylsulfanyl)-phenyl]-methanone]",0.1
7,"CC(C)Sc1ccc(S(C)(=O)=O)cc1C(=O)N1CCN(c2ncc(C(F)(F)F)cc2F)CC1 [Example 3, [4-(3-Fluoro-5-trifluoromethyl-pyridin-2-yl)-piperazin-1-yl]-(2-isopropylsulfanyl-5-methanesulfonyl-phenyl)-methanone]",0.03

# Further lines, results first:
row,IC50 [µM],Compound
1,0.006,"CNS(=O)(=O)c1ccc(SC(C)C)c(C(=O)N2CCN(c3ccc(C(F)(F)F)cc3)CC2)c1 [Example 25, 4-Isopropylsulfanyl-N-methyl-3-[4-(4-trifluoromethyl-phenyl)-piperazine-1-carbonyl]-benzenesulfonamide]"
2,0.007,"CC(C)Sc1ccc([N+](=O)[O-])cc1C(=O)N1CCN(c2ccc(C(F)(F)F)cc2)CC1 [Example 27, (2-Isopropylsulfanyl-5-nitro-phenyl)-[4-(4-trifluoromethyl-phenyl)-piperazin-1-yl]-methanone]"
3,0.018,"CC(C)Sc1ccc(S(C)(=O)=O)cc1C(=O)N1CCN(c2ccc([N+](=O)[O-])cc2Cl)CC1 [Example 23, [4-(2-Chloro-4-nitro-phenyl)-piperazin-1-yl]-(2-isopropylsulfanyl-5-methanesulfonyl-phenyl)-methanone]"
